system: TNFα release by human PBMCs; assay: Cytokine release by LPS-stimulated human PBMCs (TNFα ELISA); format: cell-based; conditions: PBMC, LPS 1 μg/mL, 24 hr
Procedure: Human peripheral blood mononuclear cells (PBMCs) are isolated from “buffy coats” prepared from the blood of healthy volunteers, isolated essentially according to method of Bøyum (1984). In brief, buffy coat is diluted 1:1 with 1×PBS (Gibco) and 30 mL is carefully put on top of 20 mL Lymphoprep™ (Lucron Bioproducts) in 50 mL Falcon tubes. After centrifugation (35 min, 400 g, 18° C.) the mononuclear cells are collected from the white interphase and washed 3 times with 1×PBS by resuspending and centrifugation (10 min, 200 g). Isolated PBMCs are finally resuspended in RPMI 1640 (Cat. No. 21875, Gibco) that is supplemented with 10% heat-inactivated FBS (Hyclone).
For the assay PBMCs are seeded at 2.5E6 cells/mL in 160 μL in 96-well plates (Nunc). Serial dilution of the test compounds are made first in DMSO (Sigma) and then diluted 50-fold in M199 medium (Gibco) containing 1% heat-inactivated FBS. Compounds are further 1/10 diluted in the assay plates to obtain final DMSO concentration of 0.2%. Cells are preincubated with the compounds for 1 hr at 37° C., 5% CO2. Then, cells are stimulated with LPS (Escherichia coli serotype 026:B6, Cat. No. L2654, Sigma) that is added in a volume of 20 μL to a final concentration of 1 μg/mL and cells are further cultured for 24 hr. The plates are centrifuged and the supernatant is collected and stored at −80° C. until analysis of appropriate dilutions in ELISAs.
The following 384-well chemiluminescent ELISA protocol was developed to measure TNFα levels in the supernatant: White Lumitrac 600 384-well plates (Greiner) are coated with (40 μL/well) anti-TNFα capture antibody (Cat. No. 551220, BD Pharmingen) that is diluted to 1 μg/mL in 1×PBS (Gibco). After overnight incubation at 4° C., plates are washed with 1×PBS (80 g NaCl, 2 g KCl (Sigma), 11.5 g Na2HPO4.7H2O and 2 g KH2PO4 in 10 L milliQ; pH 7.4) and blocked with 100 μL/well buffer B (1×PBS containing 1% BSA (Sigma), 5% sucrose (Sigma) and 0.05% NaN3 (Sigma)). After 4 hr incubation at RT, blocking buffer is removed and plates are washed once with PBST (1×PBS with 0.05% Tween-20 (Sigma)). Then, 40 μL of sample is transferred to the ELISA plates and plates are incubated at 4° C. Next day, plates are washed 3 times (twice with PBST and once with PBS) and 35 μL/well biotinylated anti-TNFα antibody (Cat. No. 554511, BD Pharmingen) diluted first to a concentration of 250 ng/ml in buffer D (1×PBS with 1% BSA) is added. After 2 h of incubation at RT, plates are washed as described above and 35 μL/well of a 1/2000 dilution of streptavidin-HRP conjugate (Cat. No. SNN2004, Biosource) in buffer D is added. After 45 min, plates are washed as described above and incubated for 5 min with 50 μL/well BM Chemiluminescence ELISA Substrate POD (Roche). Readout is performed on the Luminoscan Ascent Luminometer (Labsystems) with an integration time of 100 msec delivering raw data (RLU: relative luminescence units). The following controls are included in the experiments, a maximal signal control, in which the cells are activated by LPS but only the 0.2% DMSO vehicle (and thus no compound) is added. This control indicates the maximal level of TNFα that can be achieved in the test. A minimal signal control is also included in these experiments. Here, cells are not triggered. This control returns the basal TNFα levels produced by the PBMCs. The percent inhibition (PIN) of the TNFα release, achieved by the compounds is then calculated based on the RLU data returned by the ELISA with following formula: 100−[((TNFα level compound X at concentration Y−minimal TNFα levels)/(maximal TNFα levels−minimal TNFα levels))×100]. Where compounds are tested at 8 concentrations (1/3 serial dilution), EC50-values can be calculated by curve fitting of the means of the PIN data achieved for a compound at each test concentration. […]

**Q.** With `c1cn2c(-c3cn[nH]c3)cnc(Nc3ccc(OCCN4CCOCC4)cc3)c2n1` [Compound 150, [4-(2-Morpholin-4-yl-ethoxy)-phenyl]-[5-(1H-pyrazol-4-yl)-imidazo[1,2-a]pyrazin-8-yl]-amine] as the compound, how does the EC50 read?
**A.** The EC50 was greater than 1000 nM.

**Q.** For `CCN(CC)CCNC(=O)c1ccc(Nc2ncc(-c3cn[nH]c3)n3ccnc23)c(F)c1` [Compound 83], which EC50 is on record?
**A.** The EC50 was greater than 1000 nM.

**Q.** With `C[C@@H]1CN(C)[C@@H](C)CN1c1ccc(Nc2ncc(-c3ccc(C(N)=O)cc3)n3ccnc23)cc1` [Compound 137] as the compound, how does the EC50 read?
**A.** The EC50 was greater than 1000 nM.

**Q.** With `CN(C)Cc1cc(Nc2ncc(-c3cn[nH]c3)n3ccnc23)ccc1N1CCOCC1` [Compound 218, (3-Dimethylaminomethyl-4-morpholin-4-yl-phenyl)-[5-(1H-pyrazol-4-yl)-imidazo[1,2-a]pyrazin-8-yl]-amine] as the compound, how does the EC50 read?
**A.** The EC50 was greater than 1000 nM.

**Q.** `NC(=O)c1c(F)cc(-c2cnc(Nc3ccc(N4CCOCC4)cc3)c3nccn23)cc1F` [Compound 165] was tested. Which EC50 did it give?
**A.** Its EC50 is greater than 1000 nM.

**Q.** For `CN1CCN(c2ccc(Nc3ncc(-c4ccc(C(N)=O)nc4)n4ccnc34)cc2)CC1` [Compound 129, 5-{8-[4-(4-Methyl-piperazin-1-yl)-phenylamino]-imidazo[1,2-a]pyrazin-5-yl}-pyridine-2-carboxylic acid amide], which EC50 is on record?
**A.** The EC50 was greater than 1000 nM.

**Q.** For `CC(C)N1CCN(c2ccc(Nc3ncc(-c4ccc5c(c4)CNC5=O)n4ccnc34)cc2)CC1` [Compound 205, 5-{8-[4-(4-Isopropyl-piperazin-1-yl)-phenylamino]-imidazo[1,2-a]pyrazin-5-yl}-2,3-dihydro-isoindol-1-one], which EC50 is on record?
**A.** The EC50 was greater than 1000 nM.

**Q.** Which EC50 does the source give for `CN1CCC(Oc2ccc(Nc3ncc(-c4ccc(C(N)=O)c(F)c4)n4ccnc34)cc2)CC1` [Compound 149] here?
**A.** The EC50 was greater than 1000 nM.

**Q.** How did the EC50 turn out when `CN1CCC(NC(=O)c2ccc(Nc3ncc(-c4cn[nH]c4)n4ccnc34)cc2)C1` (stereo not drawn) [Compound 64] was run?
**A.** The EC50 was greater than 1000 nM.

**Q.** With `CN1CCN(c2ccc(Nc3ncc(-c4ccc(C(N)=O)o4)n4ccnc34)cc2)CC1` [Compound 139, 5-{8-[4-(4-Methyl-piperazin-1-yl)-phenylamino]-imidazo[1,2-a]pyrazin-5-yl}-furan-2-carboxylic acid amide] as the compound, how does the EC50 read?
**A.** The EC50 was greater than 1000 nM.

**Q.** For `CN1CCN(c2ccc(Nc3ncc(-c4ccc(C(N)=O)cc4)n4ccnc34)cc2F)CC1` [Compound 171, 4-{8-[3-Fluoro-4-(4-methyl-piperazin-1-yl)-phenylamino]-imidazo[1,2-a]pyrazin-5-yl}-benzamide], which EC50 is on record?
**A.** Its EC50 is greater than 1000 nM.

**Q.** `c1cn(-c2ccc(Nc3ncc(-c4cn[nH]c4)n4ccnc34)cc2)cn1` [Compound 168, (4-Imidazol-1-yl-phenyl)-[5-(1H-pyrazol-4-yl)-imidazo[1,2-a]pyrazin-8-yl]-amine] was tested. Which EC50 did it give?
**A.** Its EC50 is greater than 1000 nM.

**Q.** How did the EC50 turn out when `CN1CCN(c2ccc(Nc3ncc(-c4csc(C(N)=O)c4)n4ccnc34)cc2)CC1` [Compound 118] was run?
**A.** Its EC50 is greater than 1000 nM.

**Q.** How did the EC50 turn out when `Cn1nnc(-c2ccc(Nc3ncc(-c4cn[nH]c4)n4ccnc34)cc2)n1` [Compound 169, [4-(2-Methyl-2H-tetrazol-5-yl)-phenyl]-[5-(1H-pyrazol-4-yl)-imidazo[1,2-a]pyrazin-8-yl]-amine] was run?
**A.** The EC50 was greater than 1000 nM.

**Q.** Which EC50 does the source give for `CN1CCN(c2ccc(Nc3ncc(-c4ccc(C(N)=O)cc4)n4ccnc34)cc2)CC1` [Compound 143] here?
**A.** Its EC50 is greater than 1000 nM.

**Q.** How did the EC50 turn out when `CN1CCN(c2ccc(Nc3ncc(-c4cscn4)n4ccnc34)cc2)CC1` [Compound 138] was run?
**A.** Its EC50 is 101 to 500 nM.

**Q.** How did the EC50 turn out when `Cc1cc(C(N)=O)ccc1-c1cnc(Nc2ccc(N3CCN(C)CC3)cc2)c2nccn12` [Compound 120] was run?
**A.** Its EC50 is greater than 1000 nM.

**Q.** `O=C(NCCN1CCOCC1)c1ccc(Nc2ncc(-c3cn[nH]c3)n3ccnc23)cc1` [Compound 53] was tested. Which EC50 did it give?
**A.** Its EC50 is greater than 1000 nM.

**Q.** For `CN1CCN(c2ccc(Nc3ncc(-c4ccc(C(N)=O)c(Cl)c4)n4ccnc34)cc2)CC1` [Compound 124], which EC50 is on record?
**A.** Its EC50 is 501 to 1000 nM.

**Q.** For `CN1CCN(c2ccc(Nc3ncc(-c4ccnc(F)c4)n4ccnc34)cc2)CC1` [Compound 125, [5-(2-Fluoro-pyridin-4-yl)-imidazo[1,2-a]pyrazin-8-yl]-[4-(4-methyl-piperazin-1-yl)-phenyl]-amine], which EC50 is on record?
**A.** Its EC50 is greater than 1000 nM.

**Q.** For `CN(C)c1ccc(CNC(=O)c2ccc(Nc3ncc(-c4cn[nH]c4)n4ccnc34)cc2)cc1` [Compound 89], which EC50 is on record?
**A.** Its EC50 is greater than 1000 nM.

**Q.** With `CN1CCN(c2ccc(Nc3ncc(-c4cc(C(N)=O)cs4)n4ccnc34)cc2)CC1` [Compound 145, 5-{8-[4-(4-Methyl-piperazin-1-yl)-phenylamino]-imidazo[1,2-a]pyrazin-5-yl}-thiophene-3-carboxylic acid amide] as the compound, how does the EC50 read?
**A.** Its EC50 is greater than 1000 nM.

**Q.** Which EC50 does the source give for `c1cn2c(-c3c[nH]cn3)cnc(Nc3ccc(N4CCOCC4)cc3)c2n1` [Compound 163] here?
**A.** Its EC50 is greater than 1000 nM.

**Q.** For `O=C(Nc1ccccc1)c1ccc(Nc2ncc(-c3cn[nH]c3)n3ccnc23)cc1` [Compound 41], which EC50 is on record?
**A.** Its EC50 is greater than 1000 nM.

**Q.** For `NC(=O)c1ccc(-c2cnc(Nc3ccc(OCCN4CCOCC4)cc3)c3nccn23)cc1F` [Compound 146], which EC50 is on record?
**A.** The EC50 was greater than 1000 nM.

**Q.** Which EC50 does the source give for `Cc1[nH]ncc1-c1cnc(Nc2ccc(N3CCOCC3)cc2)c2nccn12` [Compound 176] here?
**A.** Its EC50 is greater than 1000 nM.

**Q.** For `CC(C)N1CCN(c2ccc(Nc3ncc(-c4ccc(C(N)=O)cc4)n4ccnc34)cc2)CC1` [Compound 142], which EC50 is on record?
**A.** Its EC50 is greater than 1000 nM.

**Q.** For `CN1CCN(c2ccc(Nc3ncc(-c4ccc(C(N)=O)cc4)n4ccnc34)cc2Cl)CC1` [Compound 136, 4-{8-[3-Chloro-4-(4-methyl-piperazin-1-yl)-phenylamino]-imidazo[1,2-a]pyrazin-5-yl}-benzamide], which EC50 is on record?
**A.** The EC50 was 101 to 500 nM.

**Q.** For `O=C(NCc1cccnc1)c1ccc(Nc2ncc(-c3cn[nH]c3)n3ccnc23)cc1` [Compound 35], which EC50 is on record?
**A.** Its EC50 is 501 to 1000 nM.

**Q.** Which EC50 does the source give for `CN1CCC(COc2ccc(Nc3ncc(-c4ccc(C(N)=O)c(F)c4)n4ccnc34)cc2)CC1` [Compound 159, 2-Fluoro-4-{8-[4-(1-methyl-piperidin-4-ylmethoxy)-phenylamino]-imidazo[1,2-a]pyrazin-5-yl}-benzamide] here?
**A.** Its EC50 is greater than 1000 nM.

**Q.** Which EC50 does the source give for `C[C@@H]1CN(c2ccc(Nc3ncc(-c4ccc(C(N)=O)cc4)n4ccnc34)cc2)C[C@H](C)N1C` [Compound 155] here?
**A.** Its EC50 is greater than 1000 nM.

**Q.** `CCN(CC)CCNC(=O)c1ccc(Nc2ncc(-c3cn[nH]c3)n3ccnc23)cc1F` [Compound 82] was tested. Which EC50 did it give?
**A.** Its EC50 is greater than 1000 nM.

**Q.** `CN1CCN(c2ccc(Nc3ncc(-c4ccc(C(N)=O)s4)n4ccnc34)cc2)CC1` [Compound 127, (4-(4-Methylpiperazin-1-yl)phenyl)-[5-(2-carboxamido-5-thienyl)imidazo[1,2-a]pyrazin-8-yl]amine] was tested. Which EC50 did it give?
**A.** Its EC50 is greater than 1000 nM.

**Q.** `O=C(NCc1ccc(O)cc1)c1ccc(Nc2ncc(-c3cn[nH]c3)n3ccnc23)cc1` [Compound 90, N-(4-Hydroxybenzyl)-4-[5-(1H-pyrazol-4-yl)imidazo[1,2-a]pyrazin-8-ylamino]benzamide] was tested. Which EC50 did it give?
**A.** Its EC50 is greater than 1000 nM.

**Q.** Which EC50 does the source give for `CC(C)N1CCN(c2ccc(Nc3ncc(-c4ccc5c(c4)CNC5=O)n4ccnc34)cn2)CC1` [Compound 210, 5-{8-[6-(4-Isopropyl-piperazin-1-yl)-pyridin-3-ylamino]-imidazo[1,2-a]pyrazin-5-yl}-2,3-dihydro-isoindol-1-one] here?
**A.** The EC50 was greater than 1000 nM.

**Q.** `Cc1[nH]ncc1-c1cnc(Nc2ccc(N3CCN(C)CC3)cc2)c2nccn12` [Compound 119, (4-(4-Methylpiperazin-1-yl)phenyl)-[5-(5-methyl-1H-pyrazol-4-yl)imidazo[1,2-a]pyrazin-8-yl]amine] was tested. Which EC50 did it give?
**A.** Its EC50 is greater than 1000 nM.

**Q.** How did the EC50 turn out when `Cc1oc(-c2cnc(Nc3ccc(N4CCOCC4)cc3)c3nccn23)cc1C(N)=O` [Compound 188] was run?
**A.** Its EC50 is greater than 1000 nM.

**Q.** For `NC(=O)c1ccc(-c2cnc(Nc3ccc(-c4cccnc4)cc3)c3nccn23)cc1` [Compound 153], which EC50 is on record?
**A.** Its EC50 is 1 to 100 nM.

**Q.** Which EC50 does the source give for `CC(C)N1CCN(c2ccc(Nc3ncc(-c4cc(F)c(C(N)=O)c(F)c4)n4ccnc34)cc2)CC1` [Compound 193] here?
**A.** Its EC50 is greater than 1000 nM.
